Blank lines part the entries; values can stand above or below the compound they belong to.
Columns and labels:
[1] = Antiplatelet activity in human platelet rich plasma assessed as inhibition of ADP-induced platelet aggregation preincubated for 5 mins followed by ADP addition and measured after 5 mins; type: functional, cell-based
P2Y purinoceptor 12 [2] = target: T1, P2Y purinoceptor 12 (Homo sapiens, UniProt Q9H244); test: Displacement of [3H]2MeSADP from human P2Y12 expressed in U2OS cell membranes incubated for 60 mins by scintillation counting method; set-up: species or system Membrane
T1 sequence (Q9H244 whole entry): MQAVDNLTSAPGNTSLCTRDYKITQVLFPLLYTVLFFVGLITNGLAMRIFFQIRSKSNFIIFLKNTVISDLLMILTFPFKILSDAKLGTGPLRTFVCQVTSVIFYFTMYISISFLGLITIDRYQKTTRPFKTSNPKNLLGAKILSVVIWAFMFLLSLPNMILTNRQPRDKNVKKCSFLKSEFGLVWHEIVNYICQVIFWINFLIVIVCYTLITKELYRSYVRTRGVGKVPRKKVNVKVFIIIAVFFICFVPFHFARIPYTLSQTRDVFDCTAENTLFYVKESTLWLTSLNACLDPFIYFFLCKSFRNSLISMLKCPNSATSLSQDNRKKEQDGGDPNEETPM

P2Y purinoceptor 12 [3] = target: T1, P2Y purinoceptor 12; test: Binding affinity to human P2Y12 expressed in astrocytoma cells; type: cell-based, Astrocyte
[4] = Antiplatelet activity in human platelet rich plasma assessed as inhibition of ADP-induced platelet aggregation preincubated for 2 mins followed by ADP addition and measured after 6 mins by Born method; type: functional, cell-based
Blood [5] = test: Ex vivo inhibition of platelet aggregation in Sprague-Dawley rat blood at 3 mg/kg, iv measured after 2 hrs; type: functional; set-up: scale not given: the % may be the effect or the level left
Blood [6] = test: Ex vivo inhibition of platelet aggregation in Sprague-Dawley rat blood at 10 mg/kg, po measured after 2 hrs; type: functional; set-up: scale not given: the % may be the effect or the level left
Blood [7] = test: Ex vivo inhibition of platelet aggregation in Sprague-Dawley rat blood at 1 mg/kg, iv measured after 2 hrs; type: functional
Blood [8] = test: Ex vivo inhibition of platelet aggregation in Sprague-Dawley rat blood at 3 mg/kg, po measured after 2 hrs; type: functional
[9] = Antiplatelet activity in rat platelet rich plasma assessed as inhibition of ADP-induced platelet aggregation preincubated for 1 min followed by ADP addition and measured after 6 mins by Born method; type: functional, cell-based
[10] = Antiplatelet activity in human platelet rich plasma assessed as inhibition of ADP-induced platelet aggregation preincubated for 1 min followed by ADP addition and measured after 6 to 8 mins by Born method; type: functional, cell-based
[11] = Antiplatelet activity in human platelet rich plasma assessed as inhibition of ADP-induced platelet aggregation preincubated for 2 mins followed by ADP addition for 5 mins; type: functional, cell-based
Blood [12] = test: Ex vivo inhibition of platelet aggregation in Sprague-Dawley rat blood at 3 mg/kg, iv measured after 30 mins; type: functional; conditions: 0.5 h
Rattus norvegicus = organism: Rattus norvegicus; test: Anti-platelet aggregation activity in Sprague-Dawley rat assessed as reduction in bleeding time; type: functional
P2Y purinoceptor 12 [13] = target: T1, P2Y purinoceptor 12; test: Displacement of tritium-labeled 2MeSADP from human P2Y12 expressed in CHO cells measured after 2 hrs by scintillation counting method; type: cell-based
P2Y purinoceptor 12 [14] = target: T1, P2Y purinoceptor 12; test: Displacement of [3H]2MeSADP from P2Y12 (unknown origin)
[15] = Antiplatelet activity in human platelet rich plasma assessed as inhibition of ADP-induced platelet aggregation preincubated for 5 mins followed by ADP addition and measured after 20 mins by microplate reader analysis; type: functional, cell-based
[16] = Antiplatelet activity in human platelet rich plasma assessed as inhibition of CaCl2/fibrinogen-induced platelet aggregation preincubated for 5 mins followed by CaCl2/fibrinogen addition by microplate reader analysis; type: functional, cell-based
P2Y purinoceptor 12 [17] = target: T1, P2Y purinoceptor 12; test: Inhibition of 2-MeS-ADP induced P2Y12 (unknown origin) signalling expressed in CHO cells membrane incubated for 45 mins by 35S-GTPgammaS assay; type: functional, cell membranes

Structure (SMILES): COc1cc(/C=C/c2cc(O)cc(O)c2)ccc1O
IC50 [1]: 1.85 µM

Structure (SMILES): O=C(/C=C/c1ccc(O)c2c1[C@H](C(=O)O[C@H](Cc1ccc(O)c(O)c1)C(=O)O)[C@@H](c1ccc(O)c(O)c1)O2)O[C@H](Cc1ccc(O)c(O)c1)C(=O)O
Ki (P2Y purinoceptor 12 [2]): 36.4 µM

Structure (SMILES): Cc1cc(C)cc(Nc2cc(S(=O)(=O)O)c(N)c3c2C(=O)c2ccccc2C3=O)c1
Ki (P2Y purinoceptor 12 [3]): 0.063 µM

Structure (SMILES): Cc1c(N)cccc1Nc1cc(S(=O)(=O)O)c(N)c2c1C(=O)c1ccccc1C2=O
Ki (P2Y purinoceptor 12 [3]): 0.025 µM

Structure (SMILES): O=C(O)CC[C@H](NC(=O)c1cc(OCC(=O)N2CCC[C@H]2C(=O)NC2CCC2)n(-c2ccccc2)n1)C(=O)N1CCN(C(=O)OC2CCC2)CC1
IC50 [4]: ≤ 0.011 µM

Structure (SMILES): CCOC(=O)N1CCN(C(=O)[C@H](CCC(=O)O)NC(=O)c2cc(OCC(=O)N3CCC[C@H]3C(=O)NC3CC3)n(-c3ccccc3)n2)CC1
IC50 [4]: ≤ 0.011 µM

Structure (SMILES): CCCC(=O)c1cnn(-c2ccc(NC(=O)c3cn(CC(=O)N4CCN(C)CC4)c4ccc(Cl)cc34)nn2)c1C
Activity (Blood [5]): 79%
Activity (Blood [6]): 73.5%

Structure (SMILES): CCCC(=O)c1cnn(-c2cnc(NC(=O)c3cn(CC(=O)N4CCN(C)CC4)c4ccc(Cl)cc34)cn2)c1C
Activity (Blood [6]): 76%
inhibition in vivo at 1 mg/kg (Blood [7]): 86.3%

Structure (SMILES): CCCC(=O)c1cnn(C2CCN(NC(=O)c3cn(CC(=O)N4CCN(C)CC4)c4ccc(Cl)cc34)CC2)c1C
inhibition in vivo at 3 mg/kg (Blood [8]): 72%
IC50 [9]: 0.043 µM
IC50 [10]: 0.025 µM
inhibition in vivo at 1 mg/kg (Blood [7]): 88%

Structure (SMILES): CCCC(=O)c1cnn(C2CCC(NC(=O)c3cn(CC(=O)N4CCN(C)CC4)c4ccc(Cl)cc34)CC2)c1C (stereo not given)
inhibition in vivo at 3 mg/kg (Blood [8]): 42.8%
IC50 [9]: 0.091 µM
IC50 [10]: 0.27 µM
inhibition in vivo at 3 mg/kg (Blood [12]): 79%

Structure (SMILES): COC(=O)C(c1ccccc1Cl)N1CCc2sc(OC(=O)C(N)CC(C)C)cc2C1.Cl (stereo not given)
ED50 (Rattus norvegicus): 2.16 mg/kg

Structure (SMILES): C[C@H]([C@@H](O)[C@H](O)[C@@H](C)C(C)(C)C)[C@H]1CC[C@H]2[C@@H]3CC[C@H]4C[C@@H](OS(=O)(=O)O)[C@H](OS(=O)(=O)O)C[C@]4(C)[C@H]3CC[C@]12C
IC50 (P2Y purinoceptor 12 [14]): 2.2 µM

Structure (SMILES): CCCCOC(=O)N1CCN(C(=O)[C@H](CP(=O)(O)O)NC(=O)c2csc(-c3ccccc3)n2)CC1
IC50 (P2Y purinoceptor 12 [13]): 0.001 µM

Structure (SMILES): CCOC(=O)N1CCN(C(=O)[C@H](CCC(=O)O)NC(=O)c2cc(OCC(=O)N3CCC[C@H]3C(=O)NCC(F)(F)F)n(-c3ccccc3)n2)CC1
IC50 [4]: ≤ 0.011 µM

Structure (SMILES): CCCC(=O)c1cc(C#N)c(N(C(=O)C2CCNCC2)S(=O)(=O)Cc2cccc(F)c2)nc1C
IC50 (P2Y purinoceptor 12 [17]): 0.1 µM

Second part, the compound after the results:

IC50 [4]: ≤ 0.011 µM
Structure (SMILES): CCOC(=O)N1CCN(C(=O)[C@H](CCC(=O)O)NC(=O)c2cc(OCC(=O)N3CCC[C@H]3C(=O)NC3CCCC3)n(-c3ccccc3)n2)CC1

Ki (P2Y purinoceptor 12 [3]): 0.051 µM
Structure (SMILES): Cc1cc(Nc2ccc(Nc3ccccc3)c(S(=O)(=O)O)c2)c2c(c1N)C(=O)c1ccccc1C2=O

IC50 [11]: 0.008 µM
Structure (SMILES): CCCCOC(=O)N1CCN(C(=O)[C@H](CP(=O)(OCOC(=O)OC(C)C)OCOC(=O)OC(C)C)NC(=O)c2cc(N3CC[C@H](OC)C3)nc(-c3ccccc3)n2)CC1

IC50 (P2Y purinoceptor 12 [13]): 0.001 µM
Structure (SMILES): CCCCOC(=O)N1CCN(C(=O)[C@H](CCC(=O)O)NC(=O)c2nc(-c3ccccc3)sc2N2CC[C@H](OC)C2)CC1

IC50 [15]: 1.48 µM
Structure (SMILES): CCOC(=O)N1CCN(C(=O)[C@H](CCC(=O)O)NC(=O)c2cc(OCC(=O)N[C@@H](C)C(=O)O)n(-c3ccccc3)n2)CC1

IC50 (P2Y purinoceptor 12 [14]): 0.48 µM
Structure (SMILES): C[C@H](CC[C@@H](C)C(C)(C)C)[C@H]1CC[C@H]2[C@@H]3C[C@H](OS(=O)(=O)O)[C@H]4C[C@@H](OS(=O)(=O)O)[C@H](OS(=O)(=O)O)C[C@]4(C)[C@H]3CC[C@]12C

IC50 [16]: 2.91 µM
Structure (SMILES): CCCSc1nc(N[C@@H]2C[C@H]2c2ccccc2)c2nnn([C@@H]3C=C[C@H](OCC(=O)O)[C@@H](O)[C@H]3O)c2n1
